Earlier results on three compounds are cited in patent US10758479B2, “Galenical form for the administration of active ingredients by transmucous means” (priority 2006, dated 2020).

For data set [1] the following is noted: nasal, per-mucous path.

Molecules are shown by their SMILES.

Consider `CNS(=O)(=O)Cc1ccc2[nH]cc(CCN(C)C)c2c1` [Sumatriptan], for which the period of action result (administered enterally) is “about two”. For the same compound, the residual bioavailability entry (administered via the digestive tract) was “less than 14 % of the administered dose”.
For the compound `CN(C)C(=O)C(CCN1CCC(O)(c2ccc(Cl)cc2)CC1)(c1ccccc1)c1ccccc1` [loperamide, Loperamide], the “portion of the effectively bioavailable dose” value (in the 2 mg administered by the digestive tract) is reported as at most 0.25 mg.
Regarding `C[C@]12CC[C@@H]3c4ccc(O)cc4CC[C@H]3[C@@H]1CC[C@@H]2O` [estradiol], in data set [1], the mean bioavailability entry was “less than 25 % of the administered dose”.
